The NIST ThermoML archive (doi:10.1021/acs.jced.5b00116)
± gives the expanded uncertainty stated by the source.

Assay: activity coefficient (dimensionless); of the first substance listed, at infinite dilution; wn = mass fraction of the nth substance listed
Settings: 101 kPa, Liquid, Chromatography, w1 = 0

Row | Structure (SMILES) | activity coefficient (313.15 K) | activity coefficient (333.15 K) | activity coefficient (353.15 K) | activity coefficient (373.15 K) | activity coefficient (393.15 K)
1 | CCO [ethanol] + OCC(O)CO | 4.76 ± 0.5 | 3.98 ± 0.42 | 3.73 ± 0.39 | 3.52 ± 0.37 | 3.25 ± 0.34
2 | O [water] + OCC(O)CO | 0.73 ± 0.08 | 0.75 ± 0.08 | 0.78 ± 0.08 | 0.79 ± 0.08 | 0.8 ± 0.08
